Test results reported in the NIST ThermoML archive (doi:10.1021/acs.jced.7b01053).
Values joined by “and” are separate entries in the source; they are usually repeats but may differ in a detail not shown here. Equal entries are not always repeated. ± gives the expanded uncertainty stated by the source.

Assay: mn = molality of the nth substance listed, in mol/kg
Conditions: 293 K, 100 kPa, Liquid, Alternating current cell with electrodes

CC(=O)[O-].OCC[NH2+]CCO [2,2'-azanediylbis(ethanol) acetate] + O
Conditions	electrical conductivity
m1 = 0.02102	0.103 ± 0.01 S/m
m1 = 0.02229	0.092 ± 0.011 S/m
m1 = 0.0413	0.189 ± 0.011 S/m
m1 = 0.04556	0.185 ± 0.011 S/m
m1 = 0.06489	0.299 ± 0.021 S/m
m1 = 0.06982	0.299 ± 0.021 S/m
m1 = 0.08642	0.38 ± 0.027 S/m
m1 = 0.0929	0.387 ± 0.027 S/m
m1 = 0.11	0.471 ± 0.034 S/m
m1 = 0.1182	0.481 ± 0.035 S/m
m1 = 0.133	0.551 ± 0.042 S/m
m1 = 0.1442	0.574 ± 0.044 S/m
m1 = 0.1566	0.637 ± 0.051 S/m
m1 = 0.17	0.664 ± 0.053 S/m
m1 = 0.1784	0.715 ± 0.059 S/m
m1 = 0.1932	0.749 ± 0.063 S/m
m1 = 0.2015	0.79 ± 0.068 S/m
m1 = 0.2176	0.822 ± 0.072 S/m
m1 = 0.2233	0.87 ± 0.078 S/m
m1 = 0.2404	0.892 ± 0.081 S/m
m1 = 0.2459	0.947 ± 0.088 S/m
m1 = 0.2633	0.966 ± 0.094 S/m
m1 = 0.2671	1.01 ± 0.1 S/m
m1 = 0.2853	1.03 ± 0.1 S/m
m1 = 0.2885	1.08 ± 0.11 S/m
m1 = 0.3076	1.11 ± 0.11 S/m
m1 = 0.3083	1.14 ± 0.12 S/m
m1 = 0.3285	1.16 S/m and 1.2 S/m
m1 = 0.3471	1.26 ± 0.14 S/m
m1 = 0.3495	1.22 ± 0.13 S/m
m1 = 0.3658	1.32 ± 0.15 S/m
m1 = 0.3689	1.27 ± 0.14 S/m
m1 = 0.3832	1.37 ± 0.15 S/m
m1 = 0.3886	1.33 ± 0.15 S/m
m1 = 0.4004	1.42 ± 0.16 S/m
m1 = 0.4068	1.38 ± 0.15 S/m
m1 = 0.4163	1.46 ± 0.17 S/m
m1 = 0.4248	1.43 ± 0.16 S/m
m1 = 0.4322	1.51 ± 0.18 S/m
m1 = 0.4417	1.47 ± 0.17 S/m
m1 = 0.4472	1.55 ± 0.19 S/m
m1 = 0.4583	1.51 ± 0.18 S/m
m1 = 0.4617	1.59 ± 0.19 S/m
m1 = 0.4738	1.56 ± 0.19 S/m
m1 = 0.4751	1.64 ± 0.2 S/m
m1 = 0.4881	1.68 ± 0.21 S/m
m1 = 0.489	1.61 ± 0.2 S/m
m1 = 0.5005	1.73 ± 0.23 S/m
m1 = 0.5032	1.65 ± 0.2 S/m
m1 = 0.5129	1.76 ± 0.23 S/m
m1 = 0.5172	1.68 ± 0.21 S/m
m1 = 0.5243	1.8 ± 0.23 S/m
m1 = 0.5302	1.7 ± 0.22 S/m
m1 = 0.5355	1.83 ± 0.24 S/m
m1 = 0.5436	1.73 ± 0.22 S/m
m1 = 0.5561	1.76 ± 0.23 S/m

CCCC(=O)[O-].[NH3+]CCO [2-hydroxy ethylammonium butanoate] + O
Conditions	electrical conductivity [S/m]
m1 = 0.01855	0.092 ± 0.015
m1 = 0.0207	0.107 ± 0.015
m1 = 0.03507	0.163 ± 0.013
m1 = 0.0415	0.196 ± 0.015
m1 = 0.05678	0.264 ± 0.019
m1 = 0.06247	0.295 ± 0.02
m1 = 0.07651	0.338 ± 0.023
m1 = 0.08283	0.372 ± 0.026
m1 = 0.09713	0.41 ± 0.029
m1 = 0.1049	0.449 ± 0.032
m1 = 0.119	0.485 ± 0.035
m1 = 0.1258	0.511 ± 0.038
m1 = 0.1407	0.563 ± 0.043
m1 = 0.1476	0.585 ± 0.045
m1 = 0.1628	0.637 ± 0.051
m1 = 0.1681	0.649 ± 0.052
m1 = 0.184	0.709 ± 0.058
m1 = 0.1888	0.711 ± 0.059
m1 = 0.2055	0.77 ± 0.065
m1 = 0.2087	0.764 ± 0.065
m1 = 0.2251	0.834 ± 0.074
m1 = 0.2284	0.81 ± 0.072
m1 = 0.2448	0.894 ± 0.089
m1 = 0.2469	0.857 ± 0.084
m1 = 0.2626	0.946 ± 0.094
m1 = 0.2654	0.9 ± 0.088
m1 = 0.2809	0.994 ± 0.095
m1 = 0.2825	0.94 ± 0.087
m1 = 0.298	1.04 ± 0.12
m1 = 0.3001	0.982 ± 0.11
m1 = 0.3153	1.09 ± 0.11
m1 = 0.3165	1.02 ± 0.098
m1 = 0.331	1.12 ± 0.11
m1 = 0.3327	1.06 ± 0.1
m1 = 0.3468	1.17 ± 0.12
m1 = 0.3475	1.09 ± 0.11
m1 = 0.3613	1.2 ± 0.13
m1 = 0.3622	1.12 ± 0.11
m1 = 0.3758	1.15 ± 0.12
m1 = 0.3759	1.23 ± 0.13
m1 = 0.3892	1.27 ± 0.14
m1 = 0.3894	1.18 ± 0.12
m1 = 0.4021	1.2 ± 0.12
m1 = 0.4023	1.3 ± 0.14
m1 = 0.4144	1.23 ± 0.13
m1 = 0.4145	1.32 ± 0.14
m1 = 0.4231	1.34 ± 0.15
m1 = 0.4259	1.25 ± 0.13
m1 = 0.4344	1.36 ± 0.15
m1 = 0.4374	1.27 ± 0.14
m1 = 0.4449	1.39 ± 0.16
m1 = 0.448	1.29 ± 0.14
m1 = 0.4554	1.41 ± 0.16
m1 = 0.4584	1.32 ± 0.14
m1 = 0.4651	1.43 ± 0.16
m1 = 0.4681	1.33 ± 0.15
m1 = 0.4746	1.45 ± 0.17
m1 = 0.4775	1.35 ± 0.15
m1 = 0.4835	1.46 ± 0.17
m1 = 0.4864	1.38 ± 0.15
m1 = 0.4922	1.48 ± 0.17
m1 = 0.495	1.4 ± 0.16
m1 = 0.5005	1.5 ± 0.18
m1 = 0.5032	1.41 ± 0.16
m1 = 0.5085	1.52 ± 0.18
m1 = 0.516	1.54 ± 0.18
m1 = 0.5231	1.55 ± 0.19

CCCCC(=O)[O-].[NH3+]CCO [2-hydroxy ethylammonium pentanoate] + O
Conditions	electrical conductivity [S/m]
m1 = 0.01913	0.108 ± 0.011
m1 = 0.01918	0.068 ± 0.014
m1 = 0.03718	0.19 ± 0.015
m1 = 0.03781	0.126 ± 0.013
m1 = 0.05621	0.26 ± 0.019
m1 = 0.05801	0.176 ± 0.014
m1 = 0.07457	0.309 ± 0.047
m1 = 0.07759	0.244 ± 0.046
m1 = 0.09498	0.365 ± 0.04
m1 = 0.09926	0.296 ± 0.02
m1 = 0.1135	0.412 ± 0.029
m1 = 0.1187	0.344 ± 0.024
m1 = 0.1336	0.48 ± 0.035
m1 = 0.1402	0.393 ± 0.028
m1 = 0.152	0.526 ± 0.039
m1 = 0.1594	0.439 ± 0.031
m1 = 0.1718	0.578 ± 0.044
m1 = 0.1796	0.483 ± 0.035
m1 = 0.1899	0.625 ± 0.049
m1 = 0.1981	0.523 ± 0.039
m1 = 0.2067	0.661 ± 0.055
m1 = 0.2174	0.664 ± 0.053
m1 = 0.224	0.701 ± 0.058
m1 = 0.2348	0.597 ± 0.046
m1 = 0.24	0.739 ± 0.062
m1 = 0.2529	0.637 ± 0.05
m1 = 0.2565	0.776 ± 0.066
m1 = 0.2697	0.669 ± 0.13
m1 = 0.272	0.809 ± 0.14
m1 = 0.2867	0.704 ± 0.058
m1 = 0.2875	0.844 ± 0.074
m1 = 0.302	0.875 ± 0.078
m1 = 0.3024	0.734 ± 0.061
m1 = 0.3165	0.904 ± 0.083
m1 = 0.3181	0.759 ± 0.065
m1 = 0.3299	0.93 ± 0.13
m1 = 0.3329	0.786 ± 0.068
m1 = 0.3434	0.957 ± 0.09
m1 = 0.3474	0.812 ± 0.071
m1 = 0.3561	0.983 ± 0.093
m1 = 0.3608	0.832 ± 0.073
m1 = 0.3685	1.01 ± 0.097
m1 = 0.3744	0.855 ± 0.076
m1 = 0.38	1.03 ± 0.1
m1 = 0.3866	0.876 ± 0.078
m1 = 0.3914	1.05 ± 0.1
m1 = 0.3988	0.895 ± 0.081
m1 = 0.402	1.07 ± 0.11
m1 = 0.4101	0.917 ± 0.084
m1 = 0.4126	1.09 ± 0.11
m1 = 0.4215	0.925 ± 0.085
m1 = 0.4221	1.11 ± 0.11
m1 = 0.4316	1.13 ± 0.11
m1 = 0.4318	0.94 ± 0.087
m1 = 0.4404	1.14 ± 0.12
m1 = 0.4421	0.957 ± 0.089
m1 = 0.4517	0.971 ± 0.091
